# From patent EP1500403A1, “PREVENTIVE/REMEDY FOR DIABETES” (Ajinomoto Co., Inc., priority 2002, dated 2003)
# What was measured:
# Assay type in all cases: in vivo
# [1] = tested on: glucose-loaded rats; experiment: Blood glucose time course after oral glucose loading in rats (Example I); conditions: Wistar rats, glucose 1 g/kg p.o.
# Protocol: Wistar rats (age of 7 weeks; male) were divided into groups with matched body weights. After 17-hour starvation, glucose was orally given at 1 g/kg to the animals. Immediately after the administration, the inhibitor A of renal glucose reabsorption or the inhibitor B of renal glucose reabsorption (A at 30 mg/kg or 60 mg/kg; B at 30 mg/kg or 80 mg/kg) or glibenclamide (1 mg/kg or 2 mg/kg) or nateglinide (50 mg/kg or 80 mg/kg) was orally given. Additionally, a group on the combined use of both of an inhibitor of renal glucose reabsorption and a hypoglycemic agent was also prepared. A vehicle was orally given to a control group after glucose administration.
# Blood glucose was measured in a time course.
# [2] = tested on: Type 2 diabetes model db/db mice; experiment: Nateglinide load test after repeated dosing in db/db mice (Example IV); conditions: for Blood glucose level 30 minutes after loading / Blood glucose level 120 minutes after loading / Blood glucose level before loading: db/db mice, compound successively dosed 80 mg/kg p.o. twice daily, day 25, Mean ± SD, N = 5; for Blood glucose level 30 minutes after loading / Blood glucose level 120 minutes after loading: loading with glucose 1 g/kg and nateglinide 50 mg/kg p.o.; for Blood glucose level before loading: starved 17 hours, nateglinide load test
# Protocol: Type 2 diabetes model db/db mice (age 6 weeks) were fed and kept with a feed twice daily over one hour starting 9 am and one hour starting 3 pm, for one week. Then, the mice were divided into groups with matched blood glucose levels and body weights. Subsequently, the inhibitor B of renal glucose reabsorption at 80 mg/kg or nateglinide at 80 mg/kg was orally given, immediately before feeding twice daily. Only a vehicle was orally given immediately before feeding twice daily to the animals of a control group. On day 25 from the start of administration, the mice of the individual experimental groups were starved for 17 hours and then orally given glucose (1 g/kg) and nateglinide (50 mg/kg). Blood glucose levels were measured before and after the administration, to examine whether or not the hypoglycemic action of nateglinide could be observed (nateglinide load test).
# [3] = tested on: Male Wistar rats; experiment: Assessment of excretion action of urine sugar in rat (Test Example 1B); conditions: Oral Administration in Rat (24 hours)
# Protocol: Male Wistar rats aged 5 weeks (purchased from Charles River Japan, Inc.) were acclimatized in metabolic cages for one week, for use at this experiment. The test compounds suspended in olive oil were prepared into solutions to a dose of 5 ml per 1 kg rat body weight. After the rats were starved for 4 hours, the test compounds were orally given at 10, 30 and 100 mg/kg to the rats at 11 am. Immediately after dosing until 24 hours later, urine was collected. The volume of urine was measured. Then, urine glucose concentration was assayed by glucose oxidase method, to calculate the glucose excretion into urine per individual per day. As a positive control, 3-(5-benzo[b]furanyl)-2'-(6-o-methoxycarbonyl-β-D-glucopyranosyldxy)-6'-hydroxy-4'-methylpropiophenone [under a different name of 3-(benzo[b]furan-5-yl)-2', 6'-dihydroxy-4'-methylpropiophenone 2'-o-(6-o-methoxycarbonyl-β-D-glucopyranoside)] was used.
# [4] = tested on: Male Wistar rats; experiment: Assessment of excretion action of urine sugar in rat (Test Example 2A); conditions: urine collected 24 hours
# Protocol: Male Wistar rats aged 5 weeks (purchased from Charles River Japan, Inc.) were acclimatized in metabolic cages for one week, for use at this experiment. The test compounds suspended in olive oil were dosed at 5 ml per 1 kg rat body weight.
# After the rats were starved for 4 hours, the test compounds were orally given to the rats at 11 am. Immediately after dosing until 24 hours later, urine was collected. The volume of urine was measured. Then, urine sugar concentration was assayed by glucose oxidase method, to calculate the glucose excretion into urine per individual per day.
# [5] = tested on: Type 2 diabetic model GK rats; experiment: Blood glucose after repeated once daily dosing in GK rats (Example III); conditions: once daily p.o., vs vehicle-dosed group (Fig. 4)
# Protocol: These agents were orally given once daily at the same time period as in the group administered with a single one agent. Only a vehicle was given orally to a control group. On day 25 after the start of administration, blood glucose was assayed sequentially, to compare the groups in terms of the resulting blood glucose levels.
# [6] = tested on: Type 2 diabetes model Zucker diabetic fatty rats; experiment: Insulin content in pancreas after repeated dosing in Zucker diabetic fatty rats, ELISA (Example V); conditions: twice daily p.o., day 39, starved 18 hours, inhibitor A 30 mg/kg, metformin 200 mg/kg, or both, ELISA of pancreas homogenates (Fig. 5)
# Protocol: The agents were orally given twice daily at the same time period as in the case of the groups administered with a single one of these agents. Only a vehicle was orally given twice daily to the animals in a control group. On day 39 from the start of administration, the animals were starved for 18 hours. Then, pancreas was resected from the animals, for the assay of insulin in pancreas homogenates by ELISA, to compare the groups in terms of insulin content in pancreas.
# [7] = tested on: glucose-loaded mice; experiment: Blood glucose time course after oral glucose loading in KK mice (Example II); conditions: glucose 1 g/kg p.o.
# Protocol: KK mice (age of 25 weeks; male) fed with a commercially available high-calories feed for breeding (CMF; Oriental Yeast) were divided into groups with matched body weights. After starvation for 17 hours, glucose was orally given at 1 g/kg. Immediately thereafter, the inhibitor A of renal glucose reabsorption (30 mg/kg or 45 mg/kg) or metformin (200 mg/kg or 300 mg/kg) was orally given. Additionally, a group given with the inhibitor A of renal glucose reabsorption (30 mg/kg) and metformin (200 mg/kg) was prepared. A vehicle was orally given to a control group after glucose dosing.
# Blood glucose level was assayed in a time course.
# [8] = nateglinide 50 mg/kg, inhibitor B 30 mg/kg, or both, p.o., vs vehicle group (Fig. 2)
# [9] = nateglinide 80 mg/kg or inhibitor B 80 mg/kg p.o., vs lower dose (Fig. 2)
# [10] = Dose 100 mg/kg p.o. in olive oil
# [11] = glibenclamide 1 mg/kg, inhibitor A 30 mg/kg, or both, p.o., vs vehicle group (Fig. 1)
compound,measurement,setting,value
COC(=O)OC[C@H]1O[C@@H](Oc2cc(C)cc(O)c2C(=O)CCc2ccc3occc3c2)[C@H](O)[C@@H](O)[C@@H]1O [3-(5-benzo[b]furanyl)-2'-(6-o-methoxycarbonyl-β-D-glucopyranosyloxy)-6'-hydroxy-4'-methylpropiophenone],blood glucose level 180 minutes after glucose loading and thereafter,"[1]; inhibitor B 30 mg/kg alone or with nateglinide 50 mg/kg, p.o., vs vehicle group (Fig. 2)",lower than that in the vehicle-dosed group
same,hyperglycemia / blood glucose level 30 minutes after glucose loading,[1]; [8],not reduced as greatly as in the case of nateglinide
same,pattern of glycemic suppression at increased dose,[1]; [9],pattern of glycemic suppression was also observed
same,"hyperglycemia due to glucose loading, 30 minutes after loading with glucose and nateglinide","[2]; db/db mice given inhibitor B 80 mg/kg twice daily long-term, compared with vehicle-dosed and nateglinide-dosed groups",greatly suppressed hyperglycemia
same,Blood glucose level 30 minutes after loading,[2],172 ± 14 mg/dL
same,Blood glucose level 120 minutes after loading,[2],103 ± 5 mg/dL
same,Blood glucose level before loading,[2],131 ± 6 mg/dL
same,Excreted urine sugar,[3]; Dose 10 mg/kg,2 mg
same,Excreted urine sugar,[3]; Dose 30 mg/kg,78 mg
same,Excreted urine sugar,[3]; Dose 100 mg/kg,274 mg
"CCc1ccc(Cc2c(O[C@@H]3O[C@H](COC(=O)OC)[C@@H](O)[C@H](O)[C@H]3O)nn(C(C)C)c2C)cc1 [Compound of Production Example 16-A, 4'-[(4-ethylphenyl)methyl]-1'-isopropyl-5'-methyl-1H-pyrazole-3'-o-(6-carbomethoxy)-β-D-glucopyranoside]",Excreted urine sugar,[4]; Dose 3 mg/kg p.o. in olive oil,28 mg
same,Excreted urine sugar,[4]; Dose 10 mg/kg p.o. in olive oil,263 mg
same,Excreted urine sugar,[4]; Dose 30 mg/kg p.o. in olive oil,294 mg
same,Excreted urine sugar,[4]; [10],598 mg
COc1ccc(Cl)cc1C(=O)NCCc1ccc(S(=O)(=O)NC(=O)NC2CCCCC2)cc1 [glibenclamide],blood glucose level 120 minutes after glucose loading and thereafter,[1]; [11],lowered blood glucose
same,hyperglycemia / blood glucose level immediately after glucose loading (30 minutes),[1]; [11],did not suppress hyperglycemia
same,pattern of glycemic suppression at increased dose,"[1]; glibenclamide 2 mg/kg or inhibitor A 60 mg/kg p.o., vs lower dose (Fig. 1)",did not change
same,blood glucose level,"[5]; day 25, glibenclamide 3 mg/kg, inhibitor A 30 mg/kg, or both",no difference was observed from the vehicle-dosed group
same,blood glucose level,"[5]; day 25, glibenclamide 6 mg/kg",did not produce any difference in blood glucose level from the vehicle-dosed group
"CCc1ccc(Cc2c(O[C@@H]3O[C@H](COC(=O)OC)[C@@H](O)[C@H](O)[C@H]3O)nn(-c3ccccc3)c2C(F)(F)F)cc1 [Compound of Production Example 8-A, 4'-[(4'-ethylphenyl)methyl]-1'-phenyl-5'-trifluoromethyl-1H-pyrazole-3'-o-(6-carbomethoxy)-β-D-glucopyranoside]",Excreted urine sugar,[4]; [10],4.1 mg
"CCc1ccc(Cc2c(O[C@@H]3O[C@H](COC(=O)OC)[C@@H](O)[C@H](O)[C@H]3O)nn(Cc3ccccc3)c2C(F)(F)F)cc1 [Compound of Production Example 4-A, 4'-[(4'-ethylphenyl)methyl]-1'-benzyl-5'-trifluoromethyl-1H-pyrazole-3'-o-(6-carbomethoxy)-β-D-glucopyranoside]",Excreted urine sugar,[4]; [10],27 mg
CC(C)[C@H]1CC[C@H](C(=O)N[C@H](Cc2ccccc2)C(=O)O)CC1 [nateglinide],blood glucose level 120 minutes after glucose loading and thereafter,"[1]; nateglinide 50 mg/kg p.o., vs vehicle-dosed group (Fig. 2)",did not lower the blood glucose level
same,hyperglycemia / blood glucose level 30 minutes after glucose loading,[1]; [8],more highly suppressed hyperglycemia
same,hyperglycemia / blood glucose level 60 minutes after glucose loading,[1]; [8],more highly suppressed hyperglycemia
same,pattern of glycemic suppression at increased dose,[1]; [9],did not change
same,Blood glucose level 30 minutes after loading,[2],259 ± 18 mg/dL
same,Blood glucose level 120 minutes after loading,[2],144 ± 20 mg/dL
same,Blood glucose level before loading,[2],158 ± 12 mg/dL
Cc1[nH]nc(O[C@@H]2O[C@H](CO)[C@@H](O)[C@H](O)[C@H]2O)c1Cc1ccc(OC(C)C)cc1 [4-[(4-isopropoxyphenyl)methyl)-5-methyl-1H-pyrazole-3-o-β-D-glucopyranoside],Excreted urine sugar,[4]; [10],14 mg
"CCc1ccc(Cc2c(O[C@@H]3O[C@H](COC(=O)OC)[C@@H](O)[C@H](O)[C@H]3O)nn(Cc3ccc(OC)cc3)c2C(F)(F)F)cc1 [Compound of Production Example 6-A, 4'-[(4'-ethylphenyl)methyl]-1'-[(4'-methoxyphenyl)methyl]-5'-trifluoromethyl-1H-pyrazole-3'-o-(6-carbomethoxy)-β-D-glucopyranoside]",Excreted urine sugar,[4]; [10],59 mg
CN(C)C(=N)N=C(N)N [metformin],insulin content in pancreas,[6],no difference was observed
same,increase of blood glucose / hyperglycemia 30 minutes after glucose loading,"[7]; metformin 200 mg/kg or inhibitor A 30 mg/kg p.o., vs control group (Fig. 3)",did not suppress the increase of blood glucose
same,increase of blood glucose 60 minutes later and thereafter,[7]; metformin 200 mg/kg p.o. (Fig. 3),suppressed the increase
same,pattern of glycemic suppression at elevated dose,"[7]; metformin 300 mg/kg or inhibitor A 45 mg/kg p.o., vs lower dose (Fig. 3)",did not change
"COC(=O)OC[C@H]1O[C@@H](Oc2nn(C(C)C)c(C)c2Cc2ccc(C)c(F)c2)[C@H](O)[C@@H](O)[C@@H]1O [Compound of Production Example 14-A, 4'-[(3'-fluoro-4'-methylphenyl)methyl]-1'-isopropyl-5'-methyl-1H-pyrazole-3'-o-(6-carbomethoxy)-β-D-glucopyranoside]",Excreted urine sugar,[4]; [10],918 mg
"CCc1ccc(Cc2c(O[C@@H]3O[C@H](COC(=O)OC)[C@@H](O)[C@H](O)[C@H]3O)nn(C(CF)CF)c2C(F)(F)F)cc1 [Compound of Production Example 2B, 4'-[(4'-ethylphenyl)methyl]-1'-(1',3'-difluoro-2'-propyl) -5'-(trifluoromethyl) -1H-pyrazole-3'-o-(6-o-methoxycarbonyl-β-D-glucopyranoside)]",Excreted urine sugar,[3]; Dose 10 mg/kg,136 mg
same,Excreted urine sugar,[3]; Dose 30 mg/kg,272 mg
same,Excreted urine sugar,[3]; Dose 100 mg/kg,524 mg
"COC(=O)OC[C@H]1O[C@@H](Oc2nn(C(C)C)c(C)c2Cc2ccc(OC)c(F)c2)[C@H](O)[C@@H](O)[C@@H]1O [Compound of Production Example 10-A, 4'-[(3'-fluoro-4'-methoxyphenyl)methyl]-1'-isopropyl-5'-methyl-1H-pyrazole-3'-o-(6-carbomethoxy)-β-D-glucopyranoside]",Excreted urine sugar,[4]; [10],734 mg
